Results published in patent US20100311714A1, “1H-IMIDAZO[4,5-c]QUINOLINONE COMPOUNDS” (priority 2009, published 2010).

Test system: PKB Ser473 phosphorylation in Rat1-myr-HA-p110 beta cells
Experiment: Reverse protein array, PKB Ser473 phosphorylation in Rat1-myr-HA-p110 beta cells
Type: cell-based
Details: Rattus norvegicus, 0.5 h, 30 minutes compound incubation, read-out: p-PKB/IC50_beta

## CNc1cc(-c2ccc3ncc4c(c3c2)n(-c2cccnc2C)c(=O)n4C)cnc1C [Example 2.32, 3-Methyl-8-(6-methyl-5-methylamino-pyridin-3-yl)-1-(2-methyl-pyridin-3-yl)-1,3-dihydro-imidazo[4,5-c]quinolin-2-one]
  IC50: 6 nM

## Cc1ncccc1-n1c(=O)n(C)c2cnc3ccc(-c4cncc(N)c4)cc3c21 [Example 2.25, 8-(5-Amino-pyridin-3-yl)-3-methyl-1-(2-methyl-pyridin-3-yl)-1,3-dihydro-imidazo[4,5-c]quinolin-2-one]
  IC50: 58.7 nM

## COCc1ncc(-c2ccc3ncc4c(c3c2)n(-c2ccc(N3CCC3)nc2C)c(=O)n4C)cc1OC(C)C [Example 23.2, 1-(6-Azetidin-1-yl-2-methyl-pyridin-3-yl)-8-(5-isopropoxy-6-methoxymethyl-pyridin-3-yl)-3-methyl-1,3-dihydro-imidazo[4,5-c]quinolin-2-one]
  IC50: 53.4 nM

## COc1ccc(-c2ccc3ncc4c(c3c2)n(-c2cccnc2C)c(=O)n4C)cc1OC [Example 2.9, 8-(3,4-Dimethoxy-phenyl)-3-methyl-1-(2-methyl-pyridin-3-yl)-1,3-dihydro-imidazo[4,5-c]quinolin-2-one]
  IC50: 15.7 nM

## CCOc1ccc(-c2ccc3ncc4c(c3c2)n(-c2ccc(F)nc2C)c(=O)n4C)cn1 [Example 7.3, 8-(6-Ethoxy-pyridin-3-yl)-1-(6-fluoro-2-methyl-pyridin-3-yl)-3-methyl-1,3-dihydro-imidazo[4,5-c]quinolin-2-one]
  IC50: 43.8 nM

## Cc1ncccc1-n1c(=O)n(C)c2cnc3ccc(-c4ccc(N)nc4)cc3c21 [Example 2.7, 8-(6-Amino-pyridin-3-yl)-3-methyl-1-(2-methyl-pyridin-3-yl)-1,3-dihydro-imidazo[4,5-c]quinolin-2-one]
  IC50: 19.2 nM

## Cc1nc(N2CCC2)ccc1-n1c(=O)n(C)c2cnc3ccc(-c4cncc(N5CCC5)c4)cc3c21 [Example 23.1, 1-(6-Azetidin-1-yl-2-methyl-pyridin-3-yl)-8-(5-azetidin-1-yl-pyridin-3-yl)-3-methyl-1,3-dihydro-imidazo[4,5-c]quinolin-2-one]
  IC50: 15.1 nM

## Cc1nc(N(C)CCO)ccc1-n1c(=O)n(C)c2cnc3ccc(-c4cnc(N)c(C(F)(F)F)c4)cc3c21 [Example 26.1, 8-(6-Amino-5-trifluoromethyl-pyridin-3-yl)-1-{6-[(2-hydroxy-ethyl)-methyl-amino]-2-methyl-pyridin-3-yl}-3-methyl-1,3-dihydro-imidazo[4,5-c]quinolin-2-one]
  IC50: < 4.57 nM

## Cc1nc(F)ccc1-n1c(=O)n(C)c2cnc3ccc(-c4cncc(C(C)(C)O)c4)cc3c21 [Example 7.8, 1-(6-Fluoro-2-methyl-pyridin-3-yl)-8-[5-(1-hydroxy-1-methyl-ethyl)-pyridin-3-yl]-3-methyl-1,3-dihydro-imidazo[4,5-c]quinolin-2-one]
  IC50: 68.6 nM

## CNc1ncc(-c2ccc3ncc4c(c3c2)n(-c2ncccc2C)c(=O)n4C)cn1 [Example 3.4, 3-Methyl-8-(2-methylamino-pyrimidin-5-yl)-1-(3-methyl-pyridin-2-yl)-1,3-dihydro-imidazo[4,5-c]quinolin-2-one]
  IC50: 527 nM

## CNc1ccc(-c2ccc3ncc4c(c3c2)n(-c2ccc(F)nc2C)c(=O)n4C)cn1 [Example 7.4, 1-(6-Fluoro-2-methyl-pyridin-3-yl)-3-methyl-8-(6-methylamino-pyridin-3-yl)-1,3-dihydro-imidazo[4,5-c]quinolin-2-one]
  IC50: 8.6 nM

## CNC(=O)c1ccc(-c2ccc3ncc4c(c3c2)n(-c2ncccc2C)c(=O)n4C)cc1 [Example 3.5, N-Methyl-4-[3-methyl-1-(3-methyl-pyridin-2-yl)-2-oxo-2,3-dihydro-1H-imidazo[4,5-c]quinolin-8-yl]-benzamide]
  IC50: 131 nM

## Cc1nc(C(F)(F)F)ccc1-n1c(=O)n(C)c2cnc3ccc(-c4cncc(C(C)(C)O)c4)cc3c21 [Example 33.1, 8-[5-(1-Hydroxy-1-methyl-ethyl)-pyridin-3-yl]-3-methyl-1-(2-methyl-6-trifluoromethyl-pyridin-3-yl)-1,3-dihydro-imidazo[4,5-c]quinolin-2-one]
  IC50: 50 nM

## Cc1ncccc1-n1c(=O)n(C)c2cnc3ccc(-c4cncc(NC(C)C)c4)cc3c21 [Example 2.24, 8-(5-Isopropylamino-pyridin-3-yl)-3-methyl-1-(2-methyl-pyridin-3-yl)-1,3-dihydro-imidazo[4,5-c]quinolin-2-one]
  IC50: 16.4 nM

## CCNc1ncc(-c2ccc3ncc4c(c3c2)n(-c2ccc(N3CC[C@@H](O)C3)nc2C)c(=O)n4C)cc1COCC [Example 34.4, 8-(5-Ethoxymethyl-6-ethylamino-pyridin-3-yl)-1-[6-((R)-3-hydroxy-pyrrolidin-1-yl)-2-methyl-pyridin-3-yl]-3-methyl-1,3-dihydro-imidazo[4,5-c]quinolin-2-one]
  IC50: 27.9 nM

## COc1cc(-c2ccc3ncc4c(c3c2)n(-c2cccnc2C)c(=O)n4C)cnc1C(OC)OC [Example 2.27, 8-(6-Dimethoxymethyl-5-methoxy-pyridin-3-yl)-3-methyl-1-(2-methyl-pyridin-3-yl)-1,3-dihydro-imidazo[4,5-c]quinolin-2-one]
  IC50: 247 nM

## CCOc1cc(-c2ccc3ncc4c(c3c2)n(-c2ccc(N3CCC3)nc2C)c(=O)n4C)cnc1COC [Example 23.5, 1-(6-Azetidin-1-yl-2-methyl-pyridin-3-yl)-8-(5-ethoxy-6-methoxymethyl-pyridin-3-yl)-3-methyl-1,3-dihydro-imidazo[4,5-c]quinolin-2-one]
  IC50: 98.6 nM

## CNc1ncc(-c2ccc3ncc4c(c3c2)n(-c2ccc(N3CC[C@H](O)C3)nc2C)c(=O)n4C)cc1F [Example 32.2, 8-(5-Fluoro-6-methylamino-pyridin-3-yl)-1-[6-((S)-3-hydroxy-pyrrolidin-1-yl)-2-methyl-pyridin-3-yl]-3-methyl-1,3-dihydro-imidazo[4,5-c]quinolin-2-one]
  IC50: 15.2 nM

## COc1nc(N2CCNCC2)ccc1-n1c(=O)n(C)c2cnc3ccc(-c4cnc(N)c(C(F)(F)F)c4)cc3c21 [Example 9.2, 8-(6-Amino-5-trifluoromethyl-pyridin-3-yl)-1-(2-methoxy-6-piperazin-1-yl-pyridin-3-yl)-3-methyl-1,3-dihydro-imidazo[4,5-c]quinolin-2-one]
  IC50: 20.6 nM

## CNc1ncc(-c2ccc3ncc4c(c3c2)n(-c2ccc(N3CC[C@H](O)C3)nc2C)c(=O)n4C)cc1C(F)(F)F [Example 32.5, 1-[6-((S)-3-Hydroxy-pyrrolidin-1-yl)-2-methyl-pyridin-3-yl]-3-methyl-8-(6-methylamino-5-trifluoromethyl-pyridin-3-yl)-1,3-dihydro-imidazo[4,5-c]quinolin-2-one]
  IC50: 11 nM

## CCOc1cc(-c2ccc3ncc4c(c3c2)n(-c2ccc(OCCOC)nc2C)c(=O)n4C)cnc1COC [Example 22.1, 8-(5-Ethoxy-6-methoxymethyl-pyridin-3-yl)-1-[6-(2-methoxy-ethoxy)-2-methyl-pyridin-3-yl]-3-methyl-1,3-dihydro-imidazo[4,5-c]quinolin-2-one]
  IC50: 66.7 nM

## COc1ncc(-c2ccc3ncc4c(c3c2)n(-c2ccc(N3CC[C@H](O)C3)nc2C)c(=O)n4C)c(OC)n1 [Example 32.3, 8-(2,4-Dimethoxy-pyrimidin-5-yl)-1-[6-((S)-3-hydroxy-pyrrolidin-1-yl)-2-methyl-pyridin-3-yl]-3-methyl-1,3-dihydro-imidazo[4,5-c]quinolin-2-one]
  IC50: 80 nM

## CCOc1cc(-c2ccc3ncc4c(c3c2)n(-c2ccc(N3CCCC3)nc2C)c(=O)n4C)cnc1COC [Example 25.2, 8-(5-Ethoxy-6-methoxymethyl-pyridin-3-yl)-3-methyl-1-(2-methyl-6-pyrrolidin-1-yl-pyridin-3-yl)-1,3-dihydro-imidazo[4,5-c]quinolin-2-one]
  IC50: 39.9 nM

## Cc1ccncc1-n1c(=O)n(C)c2cnc3ccc(-c4ccc(CO)nc4)cc3c21 [Example 4.1, 8-(6-Hydroxymethyl-pyridin-3-yl)-3-methyl-1-(4-methyl-pyridin-3-yl)-1,3-dihydro-imidazo[4,5-c]quinolin-2-one]
  IC50: 694 nM

## Cc1nc(N2CC[C@H](O)C2)ccc1-n1c(=O)n(C)c2cnc3ccc(-c4cncc(OC(C)C)c4)cc3c21 [Example 32.8, 1-[6-((S)-3-Hydroxy-pyrrolidin-1-yl)-2-methyl-pyridin-3-yl]-8-(5-isopropoxy-pyridin-3-yl)-3-methyl-1,3-dihydro-imidazo[4,5-c]quinolin-2-one]
  IC50: 63.7 nM

## CNc1ncc(-c2ccc3ncc4c(c3c2)n(-c2ccc(N3CC[C@H](O)C3)nc2C)c(=O)n4C)cn1 [Example 32.1, 1-[6-((S)-3-Hydroxy-pyrrolidin-1-yl)-2-methyl-pyridin-3-yl]-3-methyl-8-(2-methylamino-pyrimidin-5-yl)-1,3-dihydro-imidazo[4,5-c]quinolin-2-one]
  IC50: < 4.57 nM

## COc1ncccc1-n1c(=O)n(C)c2cnc3ccc(-c4cnc5[nH]ccc5c4)cc3c21 [Example 1.2, 1-(2-Methoxy-pyridin-3-yl)-3-methyl-8-(1H-pyrrolo[2,3-b]pyridin-5-yl)-1,3-dihydro-imidazo[4,5-c]quinolin-2-one]
  IC50: < 4.57 nM

## Cc1ncccc1-n1c(=O)n(C)c2cnc3ccc(-c4cnc(N(C)C)nc4)cc3c21 [Example 2.15, 8-(2-Dimethylamino-pyrimidin-5-yl)-3-methyl-1-(2-methyl-pyridin-3-yl)-1,3-dihydro-imidazo[4,5-c]quinolin-2-one]
  IC50: 101 nM

## CCOc1ccc(-c2ccc3ncc4c(c3c2)n(-c2cnccc2C)c(=O)n4C)cn1 [Example 4.2, 8-(6-Ethoxy-pyridin-3-yl)-3-methyl-1-(4-methyl-pyridin-3-yl)-1,3-dihydro-imidazo[4,5-c]quinolin-2-one]
  IC50: 149 nM

## CNc1ncc(-c2ccc3ncc4c(c3c2)n(-c2ccc(N3CC(O)C3)nc2C)c(=O)n4C)cc1C(F)(F)F [Example 29.4, 1-[6-(3-Hydroxy-azetidin-1-yl)-2-methyl-pyridin-3-yl]-3-methyl-8-(6-methylamino-5-trifluoromethyl-pyridin-3-yl)-1,3-dihydro-imidazo[4,5-c]quinolin-2-one]
  IC50: 21.9 nM

## CCOc1ncc(-c2ccc3ncc4c(c3c2)n(-c2cccnc2C)c(=O)n4C)cn1 [Example 2.5, 8-(2-Ethoxy-pyrimidin-5-yl)-3-methyl-1-(2-methyl-pyridin-3-yl)-1,3-dihydro-imidazo[4,5-c]quinolin-2-one]
  IC50: 53.8 nM
